Assay results reported in patent US7416848B2, “DNA encoding SNORF25 receptor” (H. Lundbeck A/S, priority 1999, dated 2008).

Columns and labels:
serotonin 5-HT4 receptor = biological target: T1, serotonin 5-HT4 receptor (Homo sapiens, UniProt Q13639); experiment: cAMP in Cos-7 cells transfected with serotonin 5-HT4 receptor; format: cell-based; details: 10 μM, serotonin 5-HT4 (FIG. 7)
T1 construct: expressed in transfected cells; host or cells: Cos-7 cells
Procedure: A typical protocol for the electroporation method as applied to Cos-7 cells is described as follows. Cells to be used for transfection are split 24 hours prior to the transfection to provide flasks which are subconfluent at the time of transfection. The cells are harvested by trypsinization resuspended in their growth media and counted. 5×10^6 cells are suspended in 300 μl of DMEM and placed into an electroporation cuvette. 8 μg of receptor DNA plus 8 μg of any additional DNA needed (e.g. G protein expression vector, reporter construct, antibiotic resistance marker, mock vector, etc.) is added to the cell suspension, the cuvette is placed into a BioRad Gene Pulser and subjected to an electrical pulse (Gene Pulser settings: 0.25 kV voltage, 950 μF capacitance). Following the pulse, 800 μl of complete DMEM is added to each cuvette and the suspension transferred to a sterile tube. Complete medium is added to each tube to bring the final cell concentration to 1×10^5 cells/100 μl. […]
The receptor-mediated stimulation or inhibition of cyclic AMP (cAMP) formation may be assayed in cells expressing the receptors. […] The plates are stored at 4° C. for 15 min, and the cAMP content in the stopping solution is measured by radioimmunoassay. Radioactivity may be quantified using a gamma counter equipped with data reduction software. […]

SNORF25 = biological target: T2, SNORF25 (Homo sapiens, UniProt Q8TDV5); experiment: Cl- currents via phospholipase C pathway in SNORF25 oocytes; format: cell-based; design: from linearized plasmids or PCR products containing the complete coding region of the genes; expressed in transfected cells; host or cells: Xenopus laevis oocytes injected with SNORF25 mRNA (with or without CFTR mRNA)
T2 sequence (Q8TDV5 1-335): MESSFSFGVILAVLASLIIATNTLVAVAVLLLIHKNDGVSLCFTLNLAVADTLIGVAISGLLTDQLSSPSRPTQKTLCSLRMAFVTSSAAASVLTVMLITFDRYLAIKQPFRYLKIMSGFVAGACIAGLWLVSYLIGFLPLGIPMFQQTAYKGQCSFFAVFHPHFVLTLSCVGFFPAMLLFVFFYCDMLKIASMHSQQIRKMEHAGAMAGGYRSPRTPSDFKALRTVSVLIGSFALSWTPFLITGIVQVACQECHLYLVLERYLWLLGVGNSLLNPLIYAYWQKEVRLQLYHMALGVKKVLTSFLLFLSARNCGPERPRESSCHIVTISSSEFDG
Procedure: Oocytes are harvested from Xenopus laevis and injected with mRNA transcripts as previously described (Quick and Lester, 1994; Smith et al., 1997). The test receptor of this invention and Gα subunit RNA transcripts are synthesized using the T7 polymerase (“Message Machine,” Ambion) from linearized plasmids or PCR products containing the complete coding region of the genes. Oocytes are injected with 10 ng synthetic receptor RNA and incubated for 3–8 days at 17 degrees. Three to eight hours prior to recording, oocytes are injected with 500 pg promiscuous Gα subunits mRNA in order to observe coupling to Ca^++ activated Cl^− currents.
Heterologous expression of GPCRs in Xenopus oocytes has been widely used to determine the identity of signaling pathways activated by agonist stimulation (Gundersen et al., 1983; Takahashi et al., 1987). Activation of the phospholipase C (PLC) pathway is assayed by applying a test compound in ND96 solution to oocytes previously injected with mRNA for the SNORF25 receptor and observing inward currents at a holding potential of approximately −80 mV. The appearance of currents that reverse at −25 mV and display other properties of the Ca^++-activated Cl^− channel is indicative of receptor-activation of PLC and release of IP3 and intracellular Ca^++.

T1 sequence (Q13639 whole entry): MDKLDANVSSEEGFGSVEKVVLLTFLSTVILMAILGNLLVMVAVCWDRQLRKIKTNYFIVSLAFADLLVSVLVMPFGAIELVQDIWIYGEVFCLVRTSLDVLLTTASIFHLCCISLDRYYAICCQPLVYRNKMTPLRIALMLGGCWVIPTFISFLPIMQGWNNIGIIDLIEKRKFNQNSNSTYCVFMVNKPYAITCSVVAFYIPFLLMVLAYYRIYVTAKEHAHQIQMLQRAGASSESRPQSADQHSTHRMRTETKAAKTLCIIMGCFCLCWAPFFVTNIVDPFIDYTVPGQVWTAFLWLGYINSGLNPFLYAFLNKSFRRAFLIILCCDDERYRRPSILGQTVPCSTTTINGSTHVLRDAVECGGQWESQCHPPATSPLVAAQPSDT

cAMP response (serotonin 5-HT4 receptor): no response
responses in oocytes expressing chimeric G-proteins (SNORF25; chimeric G-proteins coupling Gi and Go GPCRs to phospholipase C pathway): not evoked
Cl- currents in oocytes lacking CFTR (SNORF25; oocytes lacking CFTR, Gq-mediated phospholipase C pathway): did not stimulate Cl^− currents
Compound: CC1=C(/C=C/C(C)=C/C=C/C(C)=C/C(=O)O)C(C)(C)CCC1 [ATRA, all-trans-retinoic acid]
